Data reported in article PMC4674085, “Towards Prebiotic Catalytic Amyloids Using High Throughput Screening” (PLoS ONE, 2015).

Columns and labels:
Format in all cases: physicochemical
[1] = Circular dichroism (CD), secondary structure of aggregates; parameters: key: β+: has minimum near 217 nm; β++: has minimum near 217 nm and a maximum near 197 nm; −: signal too weak to interpret; ?: spectra not typical of any secondary structure
Protocol: The concept of creating an amyloid library out of a peptide library is only meaningful if the vast majority of the peptides actually form amyloids in at least one of the conditions tested. To establish the validity of our amyloid library we measured circular dichroism (CD), Fourier transform infrared spectroscopy (ATR-FTIR), as well as thioflavin T (ThT) fluorescence of peptides 1–33 at pH 7.3 (50 mM HEPES) and pH 4 (50 mM NaOAc) (see interactive Table A and associated data in S1 File). Based on the analysis of the CD and ATR-FTIR spectra (shown in the interactive Table A in S1 File) all the peptides formed β-structured aggregates in at least one condition. Most of the 33 peptides induced a significant increase in ThT fluorescence in at least one condition. […] The fibrils from a selection of the active peptides were aligned and analyzed by X-ray diffraction (Figures C and D in S1 File). In each case we observed the cross-β diffraction pattern typical of amyloid fibrils, although the degree of sample alignment varied. For two samples, 14 and 27, the difference in meridional and equatorial diffraction intensities was small but easily detected in a plot of the angular dependence of the intensity (Figure D in S1 File). The conclusion that can be drawn out of the multiple analysis techniques is that the 33 peptides that comprise the library are overwhelmingly prone to form fibril-like, β-structured aggregates. The cross-β diffraction of the tested aggregates would imply that they are more specifically all amyloidogenic.
CD measurements were carried out on a Jasco J815. Samples were prepared by centrifuging the amyloid library at 25,000 g for 10 min and then removing the supernatant. The pellets were resuspended at an approximate concentration of 100 μg/ml in 10 mM HEPES pH 7.3 (for mixtures from 50 mM HEPES) or 10 mM NaOAc pH 4 (for mixtures from 50 mM NaOAc), the suspensions were then treated with an ultrasonic probe for 5 s, upon which the solutions were placed in 1 mm cuvettes, diluted as necessary to maintain the detector voltage below 600 V and scanned from 260–190 nm at 50 nm/min, 1 nm band-pass, 2 second integration, averaged over 3 repetitions.
(§1) Table A and associated data: Biophysical characterization of library
(§2) Sequence ThT1 CD2 FTIR3 EM4 ThT CD FTIR EM X-ray5 […]
2. […]

[2] = Thioflavin T fluorescence (ThT); conditions: crude peptide fibrillized at 160 μM, mixed 10:1 with 50 μM ThT, ex 440 nm em 480 nm
Protocol: The samples of the amyloid library (50 mM HEPES pH 7.3 or 50 mM NaOAc pH 4) were mixed 10:1 with 50 μM ThT and the increase in fluorescence was measured in a 384-well plate in a BMG Pherastar platereader (ex: 440 nm em: 480 nm). The background signal from the peptides without ThT was subtracted from the one with the ThT present in the sample. Due to the large dynamic range of the signals among the many samples, the measurements were made at two different gain settings to ensure that all of the signals fell within the measureable range.
as §1
Sequence ThT1 CD2 FTIR3 EM4 ThT CD FTIR EM X-ray5
1. Fold increase in ThT ﬂuorescence over background. […]

[3] = ATR-FTIR, amide I peak of aggregates; parameters: key: indicates that no peak was observed within the typical range of stretching frequencies forβ-structure (between dashed lines at 1638 cm−1 and 1615 cm−1); conditions: air-dried pellet, crude peptide
Protocol: Samples were prepared as for the CD measurements, but instead of re-suspending the samples after centrifugation, 3 μl of H2O were added to the pellet so that it could be placed onto the diamond ATR cell of a Bruker Alpha-p ATR-FTIR spectrometer followed by air-drying before measuring the spectra. Blank subtraction was performed with an empty cell (air) and all measurements were performed without the pressure applicator.
as §1, §2
3. The peak position in amide I region is given in cm−1. […]

[4] = Transmission electron microscopy (TEM) of fibrils; parameters: key: +: ﬁbrils present; −: absent in EM micrographs; conditions: uranyl acetate stain
Protocol: The samples of the amyloid library (50 mM HEPES pH 7.3 or 50 mM NaOAc pH 4) were applied directly to glow-discharged carbon-coated grids, washed and then stained with uranyl acetate. Images were recorded on a Philips CM 12 electron microscope.
as §1, §2
4. (+) ﬁbrils present or (−) absent in EM micrographs. […]

[5] = pH 4.0, pellet (25,000 g, 10 min) resuspended ~100 μg/ml in 10 mM NaOAc pH 4, crude peptide
[6] = pH 7.3, pellet (25,000 g, 10 min) resuspended ~100 μg/ml in 10 mM HEPES pH 7.3, crude peptide

CD spectrum class [1, 5]	CD spectrum class [1, 6]	ThT, fold increase in ThT fluorescence over background ([2]; pH 4.0, 50 mM NaOAc)	ThT, fold increase in ThT fluorescence over background ([2]; pH 7.3, 50 mM HEPES)	FTIR peak position in amide I region ([3]; pH 4.0 (50 mM NaOAc))	FTIR peak position in amide I region ([3]; pH 7.3 (50 mM HEPES))	EM, fibrils in EM micrographs ([4]; pH 7.3, 50 mM HEPES)	EM, fibrils in EM micrographs ([4]; pH 4.0, 50 mM NaOAc)	Substance
−	β+	1 fold	129 fold	−	1625 cm⁻¹	+		Ac-YVAVHVHV-NH2 [Peptide 27, Ac-YVAVHVHV-CONH2]
β++	−	9 fold	2 fold	1623 cm⁻¹	−		+	Ac-YVDVHVDV-NH2 [Peptide 25, Ac-YVDVHVDV-CONH2]
	β+	1 fold	133 fold	−	1626 cm⁻¹	+	+	Ac-YVHVHVDV-NH2 [Peptide 21, Ac-YVHVHVDV-CONH2]
−	β+	1 fold	126 fold	−	1627 cm⁻¹	+	−	Ac-YVHVHVHV-NH2 [Peptide 8, Ac-YVHVHVHV-CONH2]
−	β++	1 fold	18 fold	−	1624 cm⁻¹	+		Ac-YVHVHVSV-NH2 [Peptide 11, Ac-YVHVHVSV-CONH2]
−	β++	1 fold	82 fold	−	1624 cm⁻¹	+		Ac-YVSVHVHV-NH2 [Peptide 9, Ac-YVSVHVHV-CONH2]
